PubChem BioAssay (NCI)
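Briefly, cells in 96-well plates were exposed to five compound concentrations for 48 h, and endpoints were estimated by linear interpolation. TGI: total growth inhibition.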 Where a SMILES comes first, the peptide text is derived from it. The star is where a group is joined. Boc = CC(C)(C)OC(=O)*

Tests used:
Assay in all cases: growth of human tumour cells (NCI), 48 h
[1] = tested on: MALME-3M melanoma
[2] = tested on: SNB-19 CNS
[3] = tested on: COLO 205 colon
[4] = tested on: SN12C renal
[5] = tested on: NCI-H460 lung
[6] = tested on: HCT-15 colon
[7] = tested on: MOLT-4 leukemia
[8] = tested on: UACC-257 melanoma
[9] = tested on: SF-268 CNS
[10] = tested on: SNB-75 CNS

Compound	TGI [1]	TGI [2]	TGI [3]	TGI [4]	TGI [5]	TGI [6]	TGI [7]	TGI [8]	TGI [9]	TGI [10]
COc1ccc(C#CC(=O)O)c(OC)c1	> 100 µM	> 100 µM	> 100 µM	> 100 µM	> 100 µM	> 100 µM	> 100 µM	> 100 µM		
Cc1csc(-c2cn(C)c3c2C(=O)C(N)=CC3=O)n1		> 100 µM	> 100 µM	> 100 µM	15.9 µM	> 100 µM	> 27.9 µM	32.6 µM	> 100 µM	6.48 µM
CN(C)Cc1cc(C(=O)/C=C/c2ccc(O)cc2)cc(CN(C)C)c1O		> 100 µM	33.9 µM	60.1 µM	> 100 µM	> 100 µM	> 100 µM	> 100 µM	> 100 µM	86.3 µM
COc1ccc(CC(O)CN2CCOCC2)cc1 (stereo not drawn)	> 100 µM	> 100 µM		> 100 µM	> 100 µM	> 100 µM	> 100 µM	> 100 µM	> 100 µM	
Cc1cc2[nH]c3[nH]c(=O)[nH]c(=O)c3c2cc1C	> 100 µM	> 100 µM	> 100 µM	> 100 µM		> 100 µM		> 100 µM	> 100 µM	> 100 µM
COc1ccc2nc3cc(Cl)ccc3c(NCCCNCCCNc3c4ccc(Cl)cc4nc4ccc(OC)cc34)c2c1	1.22 µM	0.314 µM	0.158 µM	0.285 µM	0.0131 µM	1.06 µM	> 100 µM	1.76 µM		0.23 µM
C=CCO/N=C/c1cc(NC(=S)c2ccoc2C)ccc1Cl	31.3 µM	21.2 µM	27.5 µM	30.3 µM		23.8 µM	29.4 µM	34 µM	36 µM	38.2 µM
COc1ccc(C(OCC2OC(n3cc(C)c(=O)[nH]c3=O)CC2n2cc(Cn3cc(F)c(=O)[nH]c3=O)nn2)(c2ccccc2)c2ccccc2)cc1 (stereo not drawn)	31.8 µM	22.8 µM	27 µM	22.8 µM		23.3 µM	18.6 µM	28 µM	35 µM	42.5 µM
O=C(NCCN1CCOCC1)c1ccc2cc(C(=O)N3CC(CCl)c4ccc([N+](=O)[O-])cc43)[nH]c2c1 (stereo not drawn)		28.8 µM	> 100 µM	52.7 µM	26.1 µM	> 100 µM	39.1 µM	86.8 µM	31.3 µM	
CC(C)(C)OC(=O)NCC(=O)NCC(=O)NCC(=O)NCC(=O)O (Boc-GGGG-OH)	> 100 µM	> 100 µM	> 100 µM	> 100 µM	> 100 µM	> 100 µM	> 100 µM	> 100 µM	> 100 µM	
C=CCOC(=O)CC[N+]1=CCC(c2ccccc2)(c2ccccc2)O1		> 100 µM	> 100 µM	> 100 µM	> 100 µM	> 100 µM	> 100 µM	> 100 µM	> 100 µM	
C/C=C/C=C/c1nc(C#N)c(N)o1	> 100 µM	> 100 µM	> 100 µM	> 100 µM		> 100 µM	> 100 µM	> 100 µM	> 100 µM	> 100 µM
